Reference: PMC7033278, “A Nonpeptide Oxytocin Receptor Agonist for a Durable Relief of Inflammatory Pain” (Scientific Reports, 2020)
Where two headings read alike, the source gives them in different places.

Columns and labels:
[1] = thermodynamic solubility in PBS pH 7.4; format: physicochemical; conditions: PBS buffer, read-out: thermodynamic water solubility (S)
Experimental: Solubility of LIT-001 was determined from solution of about 1 mg of compound in 500 μl of PBS at pH 7.4. (Figs. 1, S1) The solution was stirred at room temperature for 24 h and centrifuged at 15.000 × g for 5 min. The supernatant was diluted with a mixture of acetonitrile and water and analyzed by HPLC with a diode detector (Gilson; Kinetex 2.6 μm C18 100 A 50 × 4.6 mm column). […] The lipophilicity (LogD7.4) of LIT-001 was measured using […] of a stock solution diluted with different concentrations of octanol and PBS to cover a LogP range from −2 to + 4.5 in a final volume of 1 ml. After stirring for 1 h at room temperature (≈ 20 °C), the samples were centrifuged and the different phases were analyzed by HPLC (Gilson; diode detector, Kinetex 2.6 μ C18 100 A 50 × 4.6 mm column).

COX(2) = target: T1, COX(2) (Homo sapiens, UniProt P35354); experiment: enzyme inhibition; format: biochemical
T1 construct: Eurofins (contract assay)
T1 sequence (P35354 18-604): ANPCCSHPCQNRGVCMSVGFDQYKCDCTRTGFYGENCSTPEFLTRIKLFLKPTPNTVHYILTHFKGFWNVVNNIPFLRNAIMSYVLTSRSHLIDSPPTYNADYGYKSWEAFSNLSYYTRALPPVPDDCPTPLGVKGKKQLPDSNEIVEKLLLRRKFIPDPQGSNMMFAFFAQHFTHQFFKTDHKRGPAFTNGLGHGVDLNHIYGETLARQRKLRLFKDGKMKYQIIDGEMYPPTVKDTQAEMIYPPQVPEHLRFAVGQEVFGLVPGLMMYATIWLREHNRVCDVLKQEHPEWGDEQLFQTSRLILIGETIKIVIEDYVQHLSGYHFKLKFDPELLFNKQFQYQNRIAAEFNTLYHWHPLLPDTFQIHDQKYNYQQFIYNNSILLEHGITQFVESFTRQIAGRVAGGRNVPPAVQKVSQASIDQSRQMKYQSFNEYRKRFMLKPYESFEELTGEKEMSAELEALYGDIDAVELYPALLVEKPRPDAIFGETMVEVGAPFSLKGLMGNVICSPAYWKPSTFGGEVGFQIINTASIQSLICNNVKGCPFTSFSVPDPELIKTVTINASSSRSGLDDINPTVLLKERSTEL
Experimental: (§1) In vitro profiling of LIT-001 was performed by Eurofins as described in the Eurofins SafetyScreen-Functional panel, 2018[31]. The hepatotoxicity of LIT-001 was studied with cryo-preserved mouse hepatocytes. After unfreezing (optiTHAW and optiINCUBATE media, Xenotech) and cell viability control, cells (2 × 10^6 cells/ml) were dispatched in 96 well microtiterplates. LIT-001 was added to reach a concentration 1 μM in the presence of 1 × 10^6 cells/mL in a volume of 100 μl/well. The incubation was stopped at 4, 20, 40, 80 and 120 min in adding 100 μl of acetonitrile at 0 °C. A positive control was treated in the same conditions. All samples were analyzed by UHPLC coupled to a mass spectrometer (Shimadzu LC-MS 8030).

Lck kinase = target: T2, Lck kinase (Homo sapiens, UniProt P06239); experiment: enzyme inhibition; format: biochemical; conditions: range given for five enzymes together, below significance
T2 construct: Eurofins (contract assay)
T2 sequence (P06239 whole entry): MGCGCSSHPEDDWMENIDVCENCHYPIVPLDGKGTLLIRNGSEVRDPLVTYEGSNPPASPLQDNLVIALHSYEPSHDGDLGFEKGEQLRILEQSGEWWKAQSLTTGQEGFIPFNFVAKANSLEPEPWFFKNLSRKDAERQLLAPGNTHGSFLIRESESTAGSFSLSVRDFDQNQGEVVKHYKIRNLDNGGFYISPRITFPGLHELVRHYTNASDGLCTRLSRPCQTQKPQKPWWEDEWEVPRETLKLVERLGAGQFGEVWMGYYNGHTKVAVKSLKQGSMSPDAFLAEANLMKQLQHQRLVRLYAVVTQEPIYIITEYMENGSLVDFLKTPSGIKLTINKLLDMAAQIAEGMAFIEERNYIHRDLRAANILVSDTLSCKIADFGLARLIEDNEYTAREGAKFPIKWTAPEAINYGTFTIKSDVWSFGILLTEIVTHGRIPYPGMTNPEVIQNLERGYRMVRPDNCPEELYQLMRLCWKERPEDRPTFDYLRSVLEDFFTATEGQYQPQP
Experimental: as §1

[2] = target: T3, MAO-A from human placenta (Homo sapiens, UniProt P21397); experiment: enzyme inhibition; format: biochemical; conditions: range given for five enzymes together, below significance
T3 construct: MAO-A from human placenta; tissue Eurofins (contract assay); host or cells: human placenta
T3 sequence (P21397 whole entry): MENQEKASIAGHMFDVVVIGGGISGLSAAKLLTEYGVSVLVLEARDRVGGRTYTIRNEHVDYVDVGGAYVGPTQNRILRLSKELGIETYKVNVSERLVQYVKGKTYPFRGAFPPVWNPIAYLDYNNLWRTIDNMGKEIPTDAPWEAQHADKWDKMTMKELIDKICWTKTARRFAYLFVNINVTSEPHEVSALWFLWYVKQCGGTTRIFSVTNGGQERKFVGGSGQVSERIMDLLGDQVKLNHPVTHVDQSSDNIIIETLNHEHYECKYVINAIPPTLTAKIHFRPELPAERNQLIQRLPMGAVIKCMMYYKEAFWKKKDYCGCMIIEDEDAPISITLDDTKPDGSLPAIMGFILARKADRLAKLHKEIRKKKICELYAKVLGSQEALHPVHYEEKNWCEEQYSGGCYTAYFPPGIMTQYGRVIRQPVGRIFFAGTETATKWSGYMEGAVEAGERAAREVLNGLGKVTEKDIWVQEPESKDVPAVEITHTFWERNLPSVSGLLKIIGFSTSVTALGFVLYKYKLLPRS
Experimental: as §1

PDE3A = target: T4, PDE3A (Homo sapiens, UniProt Q14432); experiment: enzyme inhibition; format: biochemical; conditions: range given for five enzymes together, below significance
T4 construct: Eurofins (contract assay)
T4 sequence (Q14432 whole entry): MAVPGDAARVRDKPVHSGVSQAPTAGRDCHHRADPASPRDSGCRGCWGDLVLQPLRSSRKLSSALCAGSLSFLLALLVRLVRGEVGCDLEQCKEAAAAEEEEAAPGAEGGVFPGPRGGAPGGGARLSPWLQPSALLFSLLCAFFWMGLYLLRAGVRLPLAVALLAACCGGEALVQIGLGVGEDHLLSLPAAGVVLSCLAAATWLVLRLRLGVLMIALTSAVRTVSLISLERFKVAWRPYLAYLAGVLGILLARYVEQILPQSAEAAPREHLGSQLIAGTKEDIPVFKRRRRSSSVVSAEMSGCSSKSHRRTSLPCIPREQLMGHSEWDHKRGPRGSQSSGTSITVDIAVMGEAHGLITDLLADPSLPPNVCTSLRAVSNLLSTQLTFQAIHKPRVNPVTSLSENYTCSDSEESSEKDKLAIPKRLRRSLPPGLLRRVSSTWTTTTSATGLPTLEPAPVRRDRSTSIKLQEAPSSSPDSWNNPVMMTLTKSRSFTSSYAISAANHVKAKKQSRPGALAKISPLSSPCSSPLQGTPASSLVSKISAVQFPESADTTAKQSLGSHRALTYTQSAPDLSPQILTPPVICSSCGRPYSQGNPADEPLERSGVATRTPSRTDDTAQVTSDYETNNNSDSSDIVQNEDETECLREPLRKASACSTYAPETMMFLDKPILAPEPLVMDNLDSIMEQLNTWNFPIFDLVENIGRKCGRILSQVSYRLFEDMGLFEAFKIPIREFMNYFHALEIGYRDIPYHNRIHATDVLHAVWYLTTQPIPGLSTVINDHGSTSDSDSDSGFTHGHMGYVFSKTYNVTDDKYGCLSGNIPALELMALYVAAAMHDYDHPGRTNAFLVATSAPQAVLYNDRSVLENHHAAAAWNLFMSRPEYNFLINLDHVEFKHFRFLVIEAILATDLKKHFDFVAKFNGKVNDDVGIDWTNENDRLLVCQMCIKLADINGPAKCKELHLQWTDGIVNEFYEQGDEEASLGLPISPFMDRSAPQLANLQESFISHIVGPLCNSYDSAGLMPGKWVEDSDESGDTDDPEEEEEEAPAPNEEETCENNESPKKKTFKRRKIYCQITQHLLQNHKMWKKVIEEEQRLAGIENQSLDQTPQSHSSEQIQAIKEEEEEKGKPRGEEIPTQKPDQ
Experimental: as §1

PDE4D2 = target: T5, PDE4D2 (Homo sapiens, UniProt Q08499); experiment: enzyme inhibition; format: biochemical
T5 construct: Eurofins (contract assay)
T5 sequence (Q08499 303-809): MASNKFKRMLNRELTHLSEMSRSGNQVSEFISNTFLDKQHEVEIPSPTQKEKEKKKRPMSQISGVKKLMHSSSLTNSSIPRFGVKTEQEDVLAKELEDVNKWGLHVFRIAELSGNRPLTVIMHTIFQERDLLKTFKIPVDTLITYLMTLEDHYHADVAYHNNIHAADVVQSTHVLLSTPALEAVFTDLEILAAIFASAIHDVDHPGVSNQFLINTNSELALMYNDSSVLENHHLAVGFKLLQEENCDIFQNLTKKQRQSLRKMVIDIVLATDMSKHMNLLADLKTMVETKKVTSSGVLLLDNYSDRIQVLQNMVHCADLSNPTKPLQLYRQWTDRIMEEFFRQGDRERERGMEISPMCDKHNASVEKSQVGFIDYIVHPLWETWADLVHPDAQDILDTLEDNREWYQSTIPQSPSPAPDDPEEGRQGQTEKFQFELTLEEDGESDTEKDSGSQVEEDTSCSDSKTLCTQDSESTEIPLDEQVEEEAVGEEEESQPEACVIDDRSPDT
Experimental: as §1

acetylcholinesterase = target: T6, acetylcholinesterase (Homo sapiens, UniProt P22303); experiment: enzyme inhibition; format: biochemical; conditions: range given for five enzymes together, below significance
T6 construct: Eurofins (contract assay)
T6 sequence (P22303 32-614): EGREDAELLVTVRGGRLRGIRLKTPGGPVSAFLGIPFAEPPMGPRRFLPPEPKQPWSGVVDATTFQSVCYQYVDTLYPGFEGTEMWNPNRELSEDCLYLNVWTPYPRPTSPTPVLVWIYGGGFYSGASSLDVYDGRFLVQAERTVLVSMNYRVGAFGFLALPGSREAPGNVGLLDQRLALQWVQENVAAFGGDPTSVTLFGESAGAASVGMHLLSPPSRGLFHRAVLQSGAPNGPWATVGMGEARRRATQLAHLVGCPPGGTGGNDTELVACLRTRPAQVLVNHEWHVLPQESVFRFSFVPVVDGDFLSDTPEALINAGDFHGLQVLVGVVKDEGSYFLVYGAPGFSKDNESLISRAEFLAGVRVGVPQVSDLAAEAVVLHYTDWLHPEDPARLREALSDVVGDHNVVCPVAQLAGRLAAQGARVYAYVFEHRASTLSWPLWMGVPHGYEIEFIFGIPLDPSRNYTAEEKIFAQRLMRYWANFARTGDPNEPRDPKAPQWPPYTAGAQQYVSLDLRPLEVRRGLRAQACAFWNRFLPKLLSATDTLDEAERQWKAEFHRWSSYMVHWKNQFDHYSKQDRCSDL
Experimental: as §1

human recombinant COX(1) = target: T7, human recombinant COX(1) (Homo sapiens, UniProt P23219); experiment: enzyme inhibition; format: biochemical; conditions: range given for five enzymes together, below significance
T7 construct: Eurofins (contract assay)
T7 sequence (P23219 24-599): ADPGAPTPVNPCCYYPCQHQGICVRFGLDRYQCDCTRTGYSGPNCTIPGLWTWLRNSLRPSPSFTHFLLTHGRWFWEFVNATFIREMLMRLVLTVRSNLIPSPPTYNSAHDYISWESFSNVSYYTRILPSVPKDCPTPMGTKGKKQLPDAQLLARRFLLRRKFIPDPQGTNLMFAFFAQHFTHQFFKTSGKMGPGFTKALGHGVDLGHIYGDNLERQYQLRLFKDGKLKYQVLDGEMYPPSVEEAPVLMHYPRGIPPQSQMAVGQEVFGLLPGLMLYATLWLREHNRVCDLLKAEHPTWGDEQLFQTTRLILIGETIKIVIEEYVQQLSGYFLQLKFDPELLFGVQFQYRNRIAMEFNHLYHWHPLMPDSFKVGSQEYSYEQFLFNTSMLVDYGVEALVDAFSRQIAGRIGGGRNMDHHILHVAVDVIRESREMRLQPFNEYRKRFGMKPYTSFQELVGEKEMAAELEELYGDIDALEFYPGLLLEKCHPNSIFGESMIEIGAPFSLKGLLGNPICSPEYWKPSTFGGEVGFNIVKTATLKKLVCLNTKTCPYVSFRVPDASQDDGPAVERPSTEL
Experimental: as §1

[3] = stability in human hepatocytes; format: in vitro ADME
Experimental: Stability of LIT-001 was determined in human hepatocytes. Cells were unfrozen and their viability measured (Tryptan blue). Cells are suspended (2 × 10^6 cells/ml) and dispensed in 96 well microtiterplates (50 μl/well). LIT-001 (50 μl of a 2 μM in the incubation media) was added. The final concentration of the compound was 1 μM in 1 × 10^6 cells/ml. The incubation volume was 100 μl/well. Incubations were stopped after 0, 4, 20, 40, 80 and 120 min in mixing the well content with 100 μl acetonitrile at 0 °C. A positive control (testosterone) was prepared in same conditions. All samples were analyzed by LC-MS/MS (UHPLC coupled to a triple quadripole Shimadzu LC-MS 8030). Each measurement was performed in triplicate.

[4] = tested on: V2 vasopressin receptor (V2R); parameters: method as in PMID 30199637; conditions: cited from earlier work

Cc1cc(C(=O)N2Cc3cnn(C)c3Nc3ccccc32)ccc1CNC(=O)N1CCC[C@H]1C(=S)N(C)C [LIT-001]
solubility thermodynamic at 24 h ([1]; pH 7.4, aqueous buffer, thermodynamic from solid): 530 ± 30 µM
solubility thermodynamic at 24 h ([1]; pH 7.4): 340 µg/mL
inhibition at 5 µM (COX(2)): 24.6%
inhibition at 5 µM (Lck kinase): 6.4 to 9.5%
inhibition at 5 µM [2]: 6.4 to 9.5%
inhibition at 5 µM (PDE3A): 6.4 to 9.5%
inhibition at 5 µM (PDE4D2): 23.1%
inhibition at 5 µM (acetylcholinesterase): 6.4 to 9.5%
inhibition at 5 µM (human recombinant COX(1)): 6.4 to 9.5%
degradation on human hepatocytes ([3]; 1 μM, 37 °C, after 2 hours): no degradation was observed
half-life at 1 μM ([3]; human, human hepatocytes (cryopreserved, suspension), from in vitro stability results): > 2 h
affinity for V2R [4]: low micromolar affinity
